Key:
Assay type in all cases: in vivo
[1] = system: Tobacco Cutworm (Spodoptera litura) Larvae; assay: Test against tobacco cutworm (Spodoptera litura) larvae, leaf dip; details: active compound concentration 100 ppm; third-instar larvae; after 7 days
Method: (§1) Unless nomentioned otherwise, the test solutions were prepared as follows:
(§2) Containing as solvent: Dimethylformamide, 3 parts by weight; and as emulsifier: Polyoxyethylene alkyl phenyl ether, 1 part by weight
(§3) To prepare the test solution, 1 part by weight of an active compound is mixed with the above-mentioned amount of solvent containing the above-mentioned amount of emulsifier, and the mixture is diluted with water to the desired concentration.
The leaves of sweet potato were immersed in the test solution at the appropriate concentration, and the leaves were dried in air. The leaves were then placed in a petri dish having a diameter of 9 cm, and ten third-instar larvae of tobacco cutworm were released therein. The petri dish was placed in a temperature chamber at 25° C. After 2 days and 4 days sweet potato leaves were additionally added. After 7 days, the number of dead larvae was counted, to calculate the insecticidal activity. An insecticidal activity of 100% means that all larvae were killed, whereas an insecticidal activity of 0% means that no larva was killed. In the current test, the results of two petri dishes for each partition were averaged.

[2] = system: Cucurbit Leaf Beetle (Aulacophora femoralis); assay: Test against cucurbit leaf beetle, cucumber leaf dip; details: active compound concentration 100 ppm; second-instar larvae; after 7 days
Method: as §1, §2, §3
Cucumber leaves were immersed in the test solution at the appropriate concentration, and the leaves were dried in air. The leaves were then placed in a plastic cup containing aseptically sterilized black soil, and five second-instar larvae of cucurbit leaf beetle were released therein. After 7 days, the number of dead larvae was counted, and thus the insecticidal activity was calculated. An insecticidal activity of 100% means that all beetles were killed, whereas an insecticidal activity of 0% means that no beetle was killed.

[3] = system: Strain of Green Peach Aphid (Mvzus persicas) which is Resistant to Organic Phosphorus and Carbamate Agents; assay: Test against resistant green peach aphid, spray on egg plant; details: active compound concentration 500 ppm; after 7 days
Method: as §1, §2, §3
About 30 to 50 of the resistant green peach aphids were inoculated per seedling, onto the leaves of egg plant at the two-true leaf stage, which plant had been cultivated in a pot having a diameter of 6 cm. One day after the inoculation, the test solution at the appropriate concentration was sprayed thereon in a sufficient amount using a spray gun. After the spraying, the plant pot was placed in a greenhouse at 28° C., and after 7 days, the insecticidal activity was calculated. An insecticidal activity of 100% means that all aphids were killed, whereas an insecticidal activity of […] means that no aphid was killed. The test was repeated two times.

[4] = system: Two-Spotted Spider Mite (Tetranvchus urticae); assay: Test against two-spotted spider mite, spray on kidney bean; details: active compound concentration 100 ppm; adult mites; after 7 days
Method: as §1, §2, §3
50 to 100 adult two-spotted spider mites were inoculated onto the leaves of kidney beans at the two-true leaf stage, which plant had been cultivated in a pot having a diameter of 6 cm. After one day, test solution at the appropriate concentration was sprayed thereon in a sufficient amount using a spray gun. After the spraying, the plant pot was placed inside a greenhouse, and after 7 days, the acaricidal activity was calculated. An acaricidal activity of 100% means that all mites were killed, whereas an acaricidal activity of 0% means that no mite was killed.

CCC(=O)NCc1ccc(C2=NCC(c3cc(Cl)cc(Cl)c3)(C(F)(F)F)C2)cc1Br (centres unmarked) [2-19]
100%: insecticidal activity [1] | insecticidal activity [2]

O=C(NCc1ccc(C2=NCC(c3cc(Cl)c(Cl)c(Cl)c3)(C(F)(F)F)C2)c2ccccc12)C1CC1 (centres unmarked) [11-7]
100%: insecticidal activity [3] | insecticidal activity [1] | insecticidal activity [2] | acaricidal activity [4]

O=C(NCc1ccc(C2=NCC(c3cc(C(F)(F)F)cc(C(F)(F)F)c3)(C(F)(F)F)C2)cc1C(F)(F)F)C1CC1 (centres unmarked) [2-167]
100%: insecticidal activity [3] | insecticidal activity [1] | insecticidal activity [2] | acaricidal activity [4]

CCC(=O)NCc1ccc(C2=NCC(c3cc(Cl)c(Cl)c(Cl)c3)(C(F)(F)F)C2)c2ccccc12 (centres unmarked) [11-6]
100%: insecticidal activity [3] | insecticidal activity [1] | insecticidal activity [2] | acaricidal activity [4]

CCC(=O)NCc1ccc(C2=NCC(c3cc(C(F)(F)F)cc(C(F)(F)F)c3)(C(F)(F)F)C2)cc1C(F)(F)F (centres unmarked) [2-166]
100%: insecticidal activity [3] | insecticidal activity [1] | insecticidal activity [2] | acaricidal activity [4]

O=C(NCc1ccc(C2=NCC(c3cc(Cl)c(Cl)c(C(F)(F)F)c3)(C(F)(F)F)C2)cc1Br)C1CC1 (centres unmarked) [2-172]
100%: insecticidal activity [3] | insecticidal activity [1] | insecticidal activity [2] | acaricidal activity [4]

N#Cc1cc(C2=NCC(c3cc(C(F)(F)F)cc(C(F)(F)F)c3)(C(F)(F)F)C2)ccc1-n1cncn1 (centres unmarked) [1-72]
100%: insecticidal activity [3] | insecticidal activity [1] | insecticidal activity [2] | acaricidal activity [4]

CC(=O)NCc1ccc(C2=NCC(c3cc(Cl)c(Cl)c(Cl)c3)(C(F)(F)F)C2)c2ccccc12 (centres unmarked) [11-5]
100%: insecticidal activity [3] | insecticidal activity [1] | insecticidal activity [2] | acaricidal activity [4]

O=C(NCc1ccc(C2=NCC(c3cc(Cl)c(Cl)c(Cl)c3)(C(F)(F)F)C2)cc1Br)C1CC1 (centres unmarked) [2-170]
100%: insecticidal activity [3] | insecticidal activity [1] | insecticidal activity [2] | acaricidal activity [4]

O=C(CC(F)(F)F)NCc1ccc(C2=NCC(c3cc(Cl)c(Cl)c(Cl)c3)(C(F)(F)F)C2)cc1Br (centres unmarked) [2-171]
100%: insecticidal activity [3] | insecticidal activity [1] | insecticidal activity [2] | acaricidal activity [4]

O=C(NCc1ccc(C2=NCC(c3cc(Cl)cc(Cl)c3)(C(F)(F)F)C2)cc1C(F)(F)F)C1CC1 (racemic) [2-212]
100%: insecticidal activity [3] | insecticidal activity [2] | acaricidal activity [4]

CC(=O)NCc1ccc(C2=NCC(c3cc(Cl)c(Cl)c(Cl)c3)(C(F)(F)F)C2)cc1C(F)(F)F (centres unmarked) [2-161]
100%: insecticidal activity [3] | insecticidal activity [1] | insecticidal activity [2] | acaricidal activity [4]

CCNC(=O)NCc1ccc(C2=NCC(c3cc(Cl)c(Cl)c(Cl)c3)(C(F)(F)F)C2)cc1Br (centres unmarked) [2-195]
100%: insecticidal activity [3] | insecticidal activity [1] | insecticidal activity [2] | acaricidal activity [4]

O=C(CC(F)(F)F)NCc1ccc(C2=NCC(c3cc(Cl)c(Cl)c(Cl)c3)(C(F)(F)F)C2)cc1C(F)(F)F (centres unmarked) [2-164]
100%: insecticidal activity [3] | insecticidal activity [1] | insecticidal activity [2] | acaricidal activity [4]

O=C(CC(F)(F)F)NCc1ccc(C2=NCC(c3cc(Cl)c(Cl)c(Cl)c3)(C(F)(F)F)C2)c2ccccc12 (centres unmarked) [11-8]
100%: insecticidal activity [3] | insecticidal activity [1] | insecticidal activity [2] | acaricidal activity [4]

O=C(CC(F)(F)F)NCc1ccc(C2=NCC(c3cc(C(F)(F)F)cc(C(F)(F)F)c3)(C(F)(F)F)C2)cc1C(F)(F)F (centres unmarked) [2-168]
100%: insecticidal activity [3] | insecticidal activity [1] | insecticidal activity [2] | acaricidal activity [4]

CCC(=O)NCc1ccc(C2=NCC(c3cc(Cl)c(Cl)c(Cl)c3)(C(F)(F)F)C2)cc1Cl (centres unmarked) [2-157]
100%: insecticidal activity [3] | insecticidal activity [1] | insecticidal activity [2] | acaricidal activity [4]

CC(=O)NCc1ccc(C2=NCC(c3cc(C(F)(F)F)cc(C(F)(F)F)c3)(C(F)(F)F)C2)cc1C(F)(F)F (centres unmarked) [2-165]
100%: insecticidal activity [3] | insecticidal activity [1] | insecticidal activity [2] | acaricidal activity [4]

O=C(NCc1ccc(C2=NCC(c3cc(C(F)(F)F)cc(C(F)(F)F)c3)(C(F)(F)F)C2)cc1Br)C1CC1 (centres unmarked) [2-179]
100%: insecticidal activity [3] | insecticidal activity [1] | insecticidal activity [2] | acaricidal activity [4]

CC(=O)NCc1ccc(C2=NCC(c3cc(Cl)c(Cl)c(Cl)c3)(C(F)(F)F)C2)cc1Cl (centres unmarked) [2-156]
100%: insecticidal activity [3] | insecticidal activity [1] | insecticidal activity [2] | acaricidal activity [4]

O=C(CC(F)(F)F)NCc1ccc(C2=NCC(c3cc(C(F)(F)F)cc(C(F)(F)F)c3)(C(F)(F)F)C2)cc1Br (centres unmarked) [2-180]
100%: insecticidal activity [3] | insecticidal activity [1] | insecticidal activity [2] | acaricidal activity [4]

CCC(=O)NCc1ccc(C2=NCC(c3cc(Cl)c(Cl)c(C(F)(F)F)c3)(C(F)(F)F)C2)cc1C(F)(F)F (centres unmarked) [2-205]
100%: insecticidal activity [3] | insecticidal activity [1] | insecticidal activity [2] | acaricidal activity [4]

CCC(=O)NCc1ccc(C2=NCC(c3cc(Cl)c(Cl)c(Cl)c3)(C(F)(F)F)C2)cc1C(F)(F)F (centres unmarked) [2-162]
100%: insecticidal activity [3] | insecticidal activity [1] | insecticidal activity [2] | acaricidal activity [4]

CC(=O)NCc1ccc(C2=NCC(c3cc(Cl)cc(Cl)c3)(C(F)(F)F)C2)cc1C(F)(F)F (centres unmarked) [2-160]
100%: insecticidal activity [3] | insecticidal activity [1] | insecticidal activity [2] | acaricidal activity [4]

O=C(CC(F)(F)F)NCc1ccc(C2=NCC(c3cc(Cl)c(Cl)c(Cl)c3)(C(F)(F)F)C2)cc1Cl (centres unmarked) [2-159]
100%: insecticidal activity [3] | insecticidal activity [1] | insecticidal activity [2] | acaricidal activity [4]

N#Cc1cc(C2=NCC(c3cc(Br)cc(Br)c3)(C(F)(F)F)C2)ccc1-n1cncn1 (centres unmarked) [1-94]
100%: insecticidal activity [3] | insecticidal activity [1] | insecticidal activity [2] | acaricidal activity [4]

O=C(CC(F)(F)F)NCc1ccc(C2=NCC(c3cc(Cl)cc(Cl)c3)(C(F)(F)F)C2)cc1Br (centres unmarked) [2-154]
100%: insecticidal activity [1] | insecticidal activity [2] | acaricidal activity [4]

O=C(NCc1ccc(C2=NCC(c3cc(Cl)c(Cl)c(Cl)c3)(C(F)(F)F)C2)cc1C(F)(F)F)C1CC1 (centres unmarked) [2-163]
100%: insecticidal activity [3] | insecticidal activity [1] | insecticidal activity [2] | acaricidal activity [4]

O=C(CC(F)(F)F)NCc1ccc(C2=NCC(c3cc(Cl)c(Cl)c(C(F)(F)F)c3)(C(F)(F)F)C2)cc1Br (centres unmarked) [2-173]
100%: insecticidal activity [3] | insecticidal activity [1] | insecticidal activity [2] | acaricidal activity [4]

O=C(NCc1ccc(C2=NCC(c3cc(Cl)cc(Cl)c3)(C(F)(F)F)C2)cc1Br)C1CC1 (centres unmarked) [2-153]
100%: insecticidal activity [1] | insecticidal activity [2]

O=C(CC(F)(F)F)NCc1ccc(C2=NCC(c3cc(Cl)cc(Cl)c3)(C(F)(F)F)C2)cc1C(F)(F)F (racemic) [2-211]
100%: insecticidal activity [3] | insecticidal activity [2] | acaricidal activity [4]

N#Cc1cc(C2=NCC(c3cc(Cl)cc(C(F)(F)F)c3)(C(F)(F)F)C2)ccc1-n1cncn1 (centres unmarked) [1-95]
100%: insecticidal activity [3] | insecticidal activity [1] | insecticidal activity [2] | acaricidal activity [4]

O=C(NCc1ccc(C2=NCC(c3cc(Cl)c(Cl)c(Cl)c3)(C(F)(F)F)C2)cc1Cl)C1CC1 (centres unmarked) [2-158]
100%: insecticidal activity [3] | insecticidal activity [1] | insecticidal activity [2] | acaricidal activity [4]

Source: patent US8304371B2, “Insecticidal arylpyrrolines” (Bayer Cropscience AG, priority 2008, dated 2012)
